In patent US7309701B2, “Pyridazinone derivatives as pharmaceuticals and pharmaceutical compositions containing them” (Sanofi-Aventis Deutschland GmbH, priority 2002, dated 2007):

Experiments:
[1] = system: Tau protein; assay: Tau-phosphorylation: inhibition of phosphorylation of the Tau protein in adult rat cortex sections; format: cell-based; details: inhibition of Tau phosphorylation (Ser396/404, antibody AD2), 2 h incubation at 37° C.
Protocol: The compounds' activities were determined by measuring the inhibition of phosphorylation of the Tau protein in adult rat cortex sections. The cortex sections having a thickness of 300 μm were prepared from 8-10-week old male OFA rats (Iffa-Credo), sacrificed by decapitation. They were incubated in 5 ml of DMEM medium containing pyruvate and glucose 4.5 g/l at 37° C. for 40 min. The sections were then washed twice with the medium, distributed into microtubes (50 μl in 500 μl of medium with or without test compounds), and incubated at 37° C., with stirring. Two hours later, the experiment was stopped by centrifugation. The sections were washed, sonicated and centrifuged at 18300 g, for 15 min at 4° C. The concentration of proteins in supernatant was determined by a commercial assay (BCA Protein Assay, Pierce) based on the Lowry method. The samples, denatured beforehand for 10 min at 70° C., were separated on a 4-12% Bis-Tris vertical gel in the presence of MOPS-SDS buffer and electrotransferred onto nitrocellulose membrane. Immunolabeling was performed with their monoclonal antibody AD2 which specifically recognizes the phosphorylated epitopes Ser396/404 of the Tau protein. The immunoactive proteins were visualized by adding a second antibody directed against the mouse IgG's and coupled to peroxidase and a chemiluminescent substrate. The autoradiograms obtained were finally quantified using the ‘GeneTools’ software from Syngene (GeneGnome, Ozyme) in order to determine an IC50.

[2] = molecular target: human recombinant GSK-3β (Homo sapiens, UniProt P49841); assay: GSK-3β activity, AlphaScreen with primed glycogen synthase substrate peptide; format: biochemical; details: human recombinant GSK-3β, 10 μM ATP, 60 min at room temperature, AlphaScreen; read-out: IC50
Chain of human recombinant GSK-3β (P49841 whole entry): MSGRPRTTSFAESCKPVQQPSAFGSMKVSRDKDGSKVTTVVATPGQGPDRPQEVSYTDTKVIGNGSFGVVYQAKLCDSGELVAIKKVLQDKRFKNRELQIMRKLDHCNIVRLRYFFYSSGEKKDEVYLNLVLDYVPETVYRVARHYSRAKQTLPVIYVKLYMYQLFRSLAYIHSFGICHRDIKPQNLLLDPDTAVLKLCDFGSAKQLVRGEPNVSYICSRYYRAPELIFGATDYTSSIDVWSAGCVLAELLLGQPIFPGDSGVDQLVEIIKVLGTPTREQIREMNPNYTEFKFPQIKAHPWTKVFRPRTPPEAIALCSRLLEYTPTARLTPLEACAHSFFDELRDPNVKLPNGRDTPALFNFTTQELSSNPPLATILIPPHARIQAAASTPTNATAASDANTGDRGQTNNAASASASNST
Protocol: GSK-β activity was measured using human recombinant GSK-3β and a primed (pre-phosphorylated) substrate peptide (derived from glycogen synthase and containing the phosphorylation sites 3a, b, and c) on basis of the AlphaScreen technology in 384-well plate format (small volume plate, white, GREINER).

SMILES | melting point | IC50 [1] | IC50 [2]
O=C(NCc1ccc(Cl)cc1)c1cc(-c2ccncc2)n[nH]c1=O [Example 4, N-(4-chlorobenzyl)-3-oxo-6-pyridin-4-yl-2,3-dihydropyridazine-4-carboxamide] | 250 °C | 13 µM | 0.18 µM
O=C(NCc1ccncc1)c1cc(-c2ccncc2)n[nH]c1=O [Example 8, 3-oxo-6-pyridin-4-yl-N-(pyridin-4-ylmethyl)-2,3-dihydropyridazine-4-carboxamide] | 254 °C | 9 µM | 
O=C(NCc1ccc(C(F)(F)F)cc1)c1cc(-c2ccncc2)n[nH]c1=O [Example 10, 3-oxo-6-pyridin-4-yl-N-[4-(trifluoromethyl)benzyl]-2,3-dihydropyridazine-4-carboxamide] | 227 °C | 9.5 µM | 
O=C(NCc1ccc(Cl)cc1Cl)c1cc(-c2ccncc2)n[nH]c1=O [Example 2, N-(2,4-dichlorobenzyl)-3-oxo-6-pyridin-4-yl-2,3-dihydropyridazine-4-carboxamide] | 233 °C | 22 µM | 0.72 µM
O=C(NCc1ccc(Cl)cc1)c1cc(-c2cccc(O)c2)n[nH]c1=O [Example 53] |  | 19 µM | 4.4 µM
CNc1nccc(-c2cc(C(=O)NCc3ccc(Cl)cc3)c(=O)[nH]n2)n1 [Example 34, 6-(2-Methylamino-pyrimidin-4-yl)-3-oxo-2,3-dihydro-pyridazine-4-carboxylic acid 4-chloro-benzylamide] |  | 0.24 µM | 
O=C(NCCCc1ccccc1)c1cc(-c2ccncc2)n[nH]c1=O [Example 66, 3-Oxo-6-pyridin-4-yl-2,3-dihydro-pyridazine-4-carboxylic acid (3-phenyl-propyl)-amide; compoundwith trifluoro-aceticacid] |  | 1.1 µM | 0.095 µM
O=C(NCc1ccc(Cl)cc1Cl)c1cc(-c2ccc(O)cc2)n[nH]c1=O [Example 22, N-(2,4-Dichlorbenzyl)-3-oxo-6-[4-(hydroxy)phenyl]-2,3-dihydropyridazine-4-carboxylic acid] |  | 22 µM | 
O=C(NCc1ccc(Cl)c(Cl)c1)c1cc(-c2ccncc2)n[nH]c1=O [Example 16, N-(3,4-dichlorobenzyl)-3-oxo-6-pyridin-4-yl-2,3-dihydropyridazine-4-carboxamide] | 265 °C | 3.5 µM | 
Cc1cc(-c2cc(C(=O)NCc3ccc(Cl)cc3)c(=O)[nH]n2)cc(C)c1O [Example 52, 6-(4-Hydroxy-3,5-dimethyl-phenyl)-3-oxo-2,3-dihydro-pyridazine-4-carboxylic acid 4-chloro-benzylamide] |  | 19 µM | > 10 µM
O=C(NCc1ccc(Cl)cc1)c1cc(-c2ccc(O)cc2)n[nH]c1=O [Example 40, 6-(4-Hydroxy-phenyl)-3-oxo-2,3-dihydro-pyridazine-4-carboxylic acid 4-chloro-benzylamide] |  | 0.3 µM | 2.8 µM
